{"source": "paper PMC7479175", "about": "“Selection of Potent Inhibitors of Soluble Epoxide Hydrolase for Usage in Veterinary Medicine” (Frontiers in Veterinary Science, 2020)", "key": {"sEH": {"test_system": "sEH", "conditions": "non-selective pan-esterase inhibitor used at 100 μM; ref [18]; cited from earlier work"}, "Dog sEH [1]": {"molecular_target": "T1, Dog sEH (Canis lupus familiaris, UniProt A0A8I3NJL8)", "T1 sequence (A0A8I3NJL8 1-556)": "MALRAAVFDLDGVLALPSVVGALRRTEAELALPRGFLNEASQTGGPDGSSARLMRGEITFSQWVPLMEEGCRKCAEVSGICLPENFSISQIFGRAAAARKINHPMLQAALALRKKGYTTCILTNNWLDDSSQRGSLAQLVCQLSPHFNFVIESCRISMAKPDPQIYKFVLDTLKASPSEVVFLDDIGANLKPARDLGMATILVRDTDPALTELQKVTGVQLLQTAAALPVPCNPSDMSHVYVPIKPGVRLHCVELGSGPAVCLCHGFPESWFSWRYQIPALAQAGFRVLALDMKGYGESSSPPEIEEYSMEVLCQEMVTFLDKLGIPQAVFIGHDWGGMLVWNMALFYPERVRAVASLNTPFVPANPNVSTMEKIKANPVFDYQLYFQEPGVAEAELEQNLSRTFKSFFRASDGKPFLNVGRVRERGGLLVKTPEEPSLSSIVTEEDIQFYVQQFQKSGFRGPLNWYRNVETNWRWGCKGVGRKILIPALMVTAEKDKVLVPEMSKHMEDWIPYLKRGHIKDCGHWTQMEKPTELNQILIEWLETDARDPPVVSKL", "assay": "Secondary screen (kinetic mode), PHOME substrate", "assay_type": "biochemical", "conditions": "[I] = 100 nM, secondary kinetic mode screening"}, "Cat sEH [2]": {"molecular_target": "T2, Cat sEH (Felis catus, UniProt A0ABI7ZL20)", "T2 sequence (A0ABI7ZL20 entry or part of it)": "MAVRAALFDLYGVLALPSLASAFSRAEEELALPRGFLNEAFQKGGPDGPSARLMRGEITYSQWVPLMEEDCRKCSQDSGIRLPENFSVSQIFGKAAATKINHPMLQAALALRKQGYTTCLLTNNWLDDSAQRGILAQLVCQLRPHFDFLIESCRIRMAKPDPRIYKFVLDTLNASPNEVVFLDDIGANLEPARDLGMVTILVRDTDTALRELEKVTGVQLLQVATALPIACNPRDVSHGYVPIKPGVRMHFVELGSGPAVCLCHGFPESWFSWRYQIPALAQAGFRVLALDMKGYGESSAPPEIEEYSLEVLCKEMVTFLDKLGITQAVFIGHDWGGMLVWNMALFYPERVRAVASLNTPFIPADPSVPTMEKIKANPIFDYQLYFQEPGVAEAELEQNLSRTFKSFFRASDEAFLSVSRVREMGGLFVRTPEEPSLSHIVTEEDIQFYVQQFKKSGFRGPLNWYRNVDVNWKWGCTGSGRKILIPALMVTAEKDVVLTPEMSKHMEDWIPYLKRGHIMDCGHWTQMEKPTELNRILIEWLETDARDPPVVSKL", "assay": "Secondary screen (kinetic mode), PHOME substrate", "assay_type": "biochemical", "conditions": "read-out: Cat sEH Inhibition (%) S."}, "Cat sEH [3]": {"molecular_target": "T2, Cat sEH", "assay": "Primary screen (end point) of the sEH inhibitor library, PHOME substrate", "assay_type": "biochemical", "conditions": "read-out: Cat sEH Inhibition (%) P.", "procedure": "(§1) Primary screening of the library was performed with an inhibitor concentration of 100 nM using PHOME as substrate ([22]). […] The plates were then mixed and incubated at 30°C for 5 min. Across each plate, 30 μL of the working substrate solution (270 μL of 5 mM PHOME solution in DMSO diluted with 3,680 μL of buffer) were added quickly to yield [S]final: 50 μM. Each plate was further incubated at room temperature (horse sEH: 60 min; cat sEH: 45 min; dog sEH: 30 min)."}, "Dog sEH [4]": {"molecular_target": "T1, Dog sEH", "assay": "Primary screen (end point) of the sEH inhibitor library, PHOME substrate", "assay_type": "biochemical", "conditions": "[I] = 100 nM, primary end-point screening", "procedure": "as §1"}, "Horse sEH [5]": {"molecular_target": "T3, Horse sEH (Equus caballus, UniProt F7C407)", "T3 sequence (F7C407 entry or part of it)": "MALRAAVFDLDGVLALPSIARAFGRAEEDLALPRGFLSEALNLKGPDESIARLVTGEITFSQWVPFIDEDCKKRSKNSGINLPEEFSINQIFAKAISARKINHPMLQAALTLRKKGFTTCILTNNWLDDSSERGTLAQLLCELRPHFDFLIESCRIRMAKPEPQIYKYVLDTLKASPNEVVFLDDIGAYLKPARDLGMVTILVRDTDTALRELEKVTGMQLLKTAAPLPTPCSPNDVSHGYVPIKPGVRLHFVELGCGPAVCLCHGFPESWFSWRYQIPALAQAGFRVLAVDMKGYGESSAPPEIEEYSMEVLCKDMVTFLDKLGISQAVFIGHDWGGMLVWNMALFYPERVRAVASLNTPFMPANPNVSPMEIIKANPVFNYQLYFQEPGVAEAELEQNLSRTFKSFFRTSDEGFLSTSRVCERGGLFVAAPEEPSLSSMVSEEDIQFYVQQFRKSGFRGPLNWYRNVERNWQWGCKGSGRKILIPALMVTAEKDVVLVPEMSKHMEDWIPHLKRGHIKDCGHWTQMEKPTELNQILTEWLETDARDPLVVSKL", "assay": "Primary screen (end point) of the sEH inhibitor library, PHOME substrate", "assay_type": "biochemical", "conditions": "[I] = 100 nM, primary end-point screening", "procedure": "as §1"}, "Horse sEH [6]": {"molecular_target": "T3, Horse sEH", "assay": "Secondary screen (kinetic mode), PHOME substrate", "assay_type": "biochemical", "conditions": "[I] = 100 nM, secondary kinetic mode screening"}, "Microsomal stability [7]": {"assay": "Microsomal stability", "assay_type": "in vitro ADME, horse", "conditions": "1 μM inhibitor, microsomes 1 mg/mL, 37°C, 30 min, compound remaining, average ± SD (n = 3)", "procedure": "(§2) The stability of the sEH inhibitors was determined using liver microsomes as described ([24]). […] After 30 min at 37°C, the reaction was stopped by the addition of one volume of methanol containing CUDA (200 nM) as surrogate. The amount of remaining inhibitor was determined by LC/MS/MS. The stability is reported as a percentage of compound remaining after 30 min in these conditions.\n(§3) Mass spectrometry analyses were performed using a Waters Quattro Premier triple quadrupole tandem mass spectrometer (Micromass, Manchester, UK) interfaced to an electrospray ionization (ESI) source. The MS was coupled with a Waters Acquity UPLC (Waters, Milford, MA, USA). A Varian Pursuit5 C18 RP HPLC column (150 mm × 2.1 mm, particle size 5 μm) was used to separate the analytes. […] The source and the desolvation temperatures were set at 120 and 300°C, respectively. […] Dwell time was set to 0.1 s."}, "Microsomal stability [8]": {"assay": "Microsomal stability", "assay_type": "in vitro ADME, dog", "conditions": "1 μM inhibitor, microsomes 1 mg/mL, 37°C, 30 min, compound remaining, average ± SD (n = 3)", "procedure": "as §2, §3"}, "Microsomal stability [9]": {"assay": "Microsomal stability", "assay_type": "in vitro ADME, cat", "procedure": "as §2, §3"}, "[10]": {"molecular_target": "T4, sEH activity from liver cytosol of Hamster (Mesocricetus auratus, UniProt A0A1U7QV09)", "T4 sequence (A0A1U7QV09 1-554)": "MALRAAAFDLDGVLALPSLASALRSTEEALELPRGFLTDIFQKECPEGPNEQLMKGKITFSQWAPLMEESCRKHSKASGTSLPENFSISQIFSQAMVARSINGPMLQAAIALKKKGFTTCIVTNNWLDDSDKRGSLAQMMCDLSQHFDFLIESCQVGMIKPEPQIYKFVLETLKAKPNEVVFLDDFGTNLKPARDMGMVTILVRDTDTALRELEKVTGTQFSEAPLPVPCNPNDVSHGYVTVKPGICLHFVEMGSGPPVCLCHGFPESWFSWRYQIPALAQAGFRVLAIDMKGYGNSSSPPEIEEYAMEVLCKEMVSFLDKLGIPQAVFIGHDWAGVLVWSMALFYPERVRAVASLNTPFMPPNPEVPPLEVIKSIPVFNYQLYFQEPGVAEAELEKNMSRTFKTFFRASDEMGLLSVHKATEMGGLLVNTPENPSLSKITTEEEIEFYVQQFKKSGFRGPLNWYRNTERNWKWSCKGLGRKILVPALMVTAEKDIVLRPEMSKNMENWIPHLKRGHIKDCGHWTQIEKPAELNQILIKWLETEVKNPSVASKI", "assay": "sEH inhibition potency (IC50), radioactive assay with [3H]t-DPPO, liver cytosol", "assay_type": "biochemical", "conditions": "[3H]t-DPPO ([S]final = 5 μM) as substrate", "excerpt": "(§4) Fresh liver tissues samples (5–30 g) were collected promptly after death from healthy adult cat, dog and horse euthanized for reasons unrelated to this study, and whose bodies were given to science by the owners in line with federal regulations and protocol approved by the Institutional Animal Care and Use Committee at University of California Davis. Similarly, tissues from the other animals tested herein were collected from healthy animals immediately after being slaughter at the university abattoir. Because no animals were directly used or killed for this study, sample collections were exempted from approval by the Institutional Animal Care and Use Committee of the University of California Davis and Michigan State University. […] The tissues were flash-frozen in liquid nitrogen following removal, and then kept at −80°C until used. After thawing on ice, the samples were homogenized in chilled sodium phosphate buffer (20 mM pH 7.4) containing 5 mM EDTA, 1 mM DTT and 1 mM PMSF (tissue weight:buffer volume ratio 1:4). These homogenates were centrifuged at 100,000 g for 60 min at 4°C. The supernatant (the cytosolic fraction) was separated from the pellet, aliquoted and flash frozen in liquid nitrogen, then kept frozen at −80°C until usage.\n(§5) The IC50 values reported herein were determined using either a fluorescent based assay (CMNPC as substrate) for purified enzyme preparations or a radioactive based assay ([^3H]t-DPPO as substrate) for crude enzyme preparations ([20]). The fluorescent assay was used with the purified proteins. […] The substrate (CMNPC) was then added ([S]final = 5 μM). […] The radioactive […] assay was used with the liver crude extracts. Extracts were incubated with inhibitors ([I]final = 1–1,000 nM) at 30° C for 5 min in sodium phosphate buffer (pH 7.4) containing 0.1 mg/mL of BSA and 1% of DMSO, prior to substrate introduction ([^3H]t-DPPO [S]final: 50 μM; ~12,000 dpm/assay). The enzymes were incubated at 30°C for 10 min, and the reaction was quenched by the addition of 60 μL methanol and 200 μL isooctane, which extracts the remaining epoxide from the aqueous phase. […] Assays were performed in triplicate."}, "[11]": {"molecular_target": "sEH activity from liver cytosol of Cow (Bos taurus, UniProt Q17QK4)", "sequence (Q17QK4 entry or part of it)": "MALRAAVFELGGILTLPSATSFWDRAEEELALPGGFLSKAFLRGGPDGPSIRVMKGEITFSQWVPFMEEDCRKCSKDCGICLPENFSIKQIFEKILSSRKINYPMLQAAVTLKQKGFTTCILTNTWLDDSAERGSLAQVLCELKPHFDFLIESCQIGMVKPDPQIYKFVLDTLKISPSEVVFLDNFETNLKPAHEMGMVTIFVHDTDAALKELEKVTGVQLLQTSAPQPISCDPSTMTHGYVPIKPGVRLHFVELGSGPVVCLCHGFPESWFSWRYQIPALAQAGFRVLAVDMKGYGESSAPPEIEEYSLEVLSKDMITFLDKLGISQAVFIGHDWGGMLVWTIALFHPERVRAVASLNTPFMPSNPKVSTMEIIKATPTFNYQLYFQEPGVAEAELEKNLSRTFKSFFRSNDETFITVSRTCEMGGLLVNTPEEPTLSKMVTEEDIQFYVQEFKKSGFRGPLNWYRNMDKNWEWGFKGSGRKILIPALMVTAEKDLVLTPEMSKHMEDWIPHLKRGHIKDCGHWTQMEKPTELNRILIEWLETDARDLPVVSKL", "assay": "sEH inhibition potency (IC50), radioactive assay with [3H]t-DPPO, liver cytosol", "assay_type": "biochemical", "conditions": "[3H]t-DPPO ([S]final = 5 μM) as substrate", "excerpt": "as §4, §5"}}}
{"smiles": "CCOP(=O)(OCC)Oc1ccc([N+](=O)[O-])cc1", "note": "[Paraoxon]", "values": [{"measurement": "inhibition of sEH", "setting": "sEH", "result": "does not inhibit sEH"}]}
{"smiles": "CC1CCCCC1NC(=O)Nc1ccccc1", "note": "(centres unmarked) [Siduron]", "values": [{"measurement": "Dog sEH Inhibition (%) S.", "setting": "Dog sEH [1]", "result": 43, "unit": "%"}, {"measurement": "inhibition at 0.1 µM", "setting": "Cat sEH [2]", "result": 77, "unit": "%"}, {"measurement": "inhibition at 0.1 µM", "setting": "Cat sEH [3]", "result": 93, "unit": "%"}, {"measurement": "Dog sEH Inhibition (%) P.", "setting": "Dog sEH [4]", "result": "< 90", "unit": "%"}, {"measurement": "Horse sEH Inhibition (%) P.", "setting": "Horse sEH [5]", "result": 92, "unit": "%"}, {"measurement": "Horse sEH Inhibition (%) S.", "setting": "Horse sEH [6]", "result": 81, "unit": "%"}]}
{"smiles": "O=C(O)CCCCCCCCCCCNC(=O)NC12CC3CC(CC(C3)C1)C2", "note": "[compound 700]", "values": [{"measurement": "inhibition at 0.1 µM", "setting": "Dog sEH [1]; read-out: Dog sEH Inhibition (%) S.", "result": 80, "unit": "%"}, {"measurement": "Stability (% without microsomes) Horse liver microsomes NADPH +", "setting": "Microsomal stability [7]; with NADPH", "result": "96 ± 9", "unit": "%"}, {"measurement": "Stability (% without microsomes) Horse liver microsomes NADPH –", "setting": "Microsomal stability [7]; without NADPH", "result": "114 ± 15", "unit": "%"}, {"measurement": "inhibition at 0.1 µM", "setting": "Dog sEH [4]; read-out: Dog sEH Inhibition (%) P.", "result": 92, "unit": "%"}, {"measurement": "inhibition at 0.1 µM", "setting": "Horse sEH [5]; read-out: Horse sEH Inhibition (%) P.", "result": 94, "unit": "%"}, {"measurement": "inhibition at 0.1 µM", "setting": "Horse sEH [6]; read-out: Horse sEH Inhibition (%) S.", "result": 85, "unit": "%"}, {"measurement": "Stability (% without microsomes) Dog liver microsomes NADPH +", "setting": "Microsomal stability [8]; with NADPH", "result": "66 ± 9", "unit": "%"}, {"measurement": "Stability (% without microsomes) Dog liver microsomes NADPH –", "setting": "Microsomal stability [8]; without NADPH", "result": "94 ± 6", "unit": "%"}, {"measurement": "Stability (% without microsomes) Cat liver microsomes NADPH +", "setting": "Microsomal stability [9]; 1 μM inhibitor, microsomes 1 mg/mL, with NADPH, 37°C, 30 min, compound remaining, average ± SD (n = 3)", "result": "28 ± 3", "unit": "%"}, {"measurement": "Stability (% without microsomes) Cat liver microsomes NADPH –", "setting": "Microsomal stability [9]; 1 μM inhibitor, microsomes 1 mg/mL, without NADPH, 37°C, 30 min, compound remaining, average ± SD (n = 3)", "result": "105 ± 11", "unit": "%"}, {"measurement": "metabolism in cat liver microsomes (in words)", "setting": "Microsomal stability [9]; in the presence of NADPH", "result": "quickly transformed"}, {"measurement": "IC50", "setting": "[10]", "result": 5, "unit": "nM"}, {"measurement": "IC50", "setting": "[11]", "result": 6, "unit": "nM"}]}
